The source of these data is article PMC8318231, “Rate-of-Kill (RoK) assays to triage large compound sets for Chagas disease drug discovery: Application to GSK Chagas Box” (PLoS Neglected Tropical Diseases, 2021).

The test system of the series is H9c2 (rat cardiomyocytes). Kind of series: RoK assay, number of host cells nuclei (drug-related cytotoxicity, H9c2 output, Cmin_Tox). The settings on record: H9c2 host cells. In outline: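 H9c2 rat cardiomyocytes infected with T. cruzi trypomastigotes, plated in 384-well format, compound-treated and imaged over a time course. Host nuclei counted after formaldehyde fixation and DRAQ5 staining by high-content imaging. Cmin_Tox is the lowest concentration reducing host cells below 50% of initial density.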
In the case of `O=C(O)C(F)(F)F.O=c1ccc2ccc(F)c3c2n1C[C@H]3CN1CCC(NCc2cc3ccccc3o2)CC1` [TCMDC-143301], the “Cmin_Tox” value is more than 50 µM.

As to `CCCn1c(NC(=O)Cc2ccc(Cl)cc2)nc2ccccc21` [TCMDC-143279], the “Cmin_Tox” value was more than 50 µM. For `COc1ccc(NS(=O)(=O)c2cc(NC(=O)Cc3ccc(C)cc3)ccc2N2CCOCC2)cc1` [TCMDC-143313], the “Cmin_Tox” value is on record as 0.6 µM.

For the molecule `CCN(CC)S(=O)(=O)c1ccc(C(=O)Nc2cc(C)nn2-c2nc(C)c(C)c(=O)[nH]2)cc1` [TCMDC-143273], the “Cmin_Tox” value is more than 50 µM. In the case of `Cc1c(C(=O)NCCCCn2ccnc2)oc2c(C)cccc12` [TCMDC-143304], the “Cmin_Tox” value was more than 50 µM. As to `COc1cc(NC(=O)Nc2cccc(CNC(=O)OC3CCCCC3)c2)ccc1-c1cnco1` [TCMDC-143376], the “Cmin_Tox” value is on record as 16.7 µM. As to `Cn1nccc1-c1cc(OC(CN)c2ccccc2)cnc1-c1ccco1.O=C(O)C(F)(F)F.O=C(O)C(F)(F)F` (stereo not drawn) [TCMDC-143221], the “Cmin_Tox” value was more than 50 µM. As to `CS(=O)(=O)c1ccc(CC(=O)Nc2nc(-c3ccc(Cl)s3)cs2)cc1` [TCMDC-143224], the “Cmin_Tox” value is recorded as more than 50 µM. To `FC(F)(F)c1cc(C2CCCN(Cc3c[nH]c4ccccc34)C2)nc2ncnn12.O=C(O)C(O)C(O)C(=O)O` (stereo not drawn) [TCMDC-143311] belongs more than 50 µM. To `CC1CN(S(=O)(=O)c2ccc(NC(=O)c3cc(C4CC4)nc4c3cnn4C(C)C)cc2)CC(C)O1` (stereo not drawn) [TCMDC-143200] belongs more than 50 µM; to `Cc1cccc(N2CCCN(Cc3c[nH]c4ccccc34)CC2)n1` [TCMDC-143185], 5.6 µM; to `COc1ccc(S(=O)(=O)Nc2ccccc2OC)cc1NC(=O)CCCc1c[nH]c2ccccc12` [TCMDC-143256], more than 50 µM.

Turning to `COc1ccc(NS(=O)(=O)c2cc(-c3cc(C)[nH]n3)ccc2C)cc1OC` [TCMDC-143194], the “Cmin_Tox” value stood at 18.5 µM. Regarding `COc1ccc(C(C)(C)C)cc1S(=O)(=O)n1ccnc1` [TCMDC-143275], the “Cmin_Tox” value is listed as more than 50 µM. As to `O=C(NCCc1cccnc1)c1ccc(-c2ccccc2F)o1` [TCMDC-143190], the “Cmin_Tox” value was more than 50 µM.

On to `Cl.O=c1cc(NCCCNC2CCOc3c(I)cc(Cl)cc32)[nH]c2ccccc12` (stereo not drawn) [TCMDC-139489], for which the “Cmin_Tox” value turned out to be 50.0 µM. Turning to `COc1ccc(C(=O)Nc2cc(C(F)(F)F)ccc2N2CCOCC2)c(OC)c1` [TCMDC-143310], the “Cmin_Tox” value is more than 50 µM. As to `O=S(=O)(c1cccc(CSc2nnc(-c3ccc4c(c3)OCO4)o2)c1)N1CCOCC1` [TCMDC-143197], the “Cmin_Tox” value is on record as more than 50 µM. Take `COc1ccc(C(C)N(C)c2ncc3c(N)nc(N)nc3n2)cc1F` (stereo not drawn) [TCMDC-143298]: the “Cmin_Tox” value is given as more than 50 µM. To `CCC(=O)Nc1ccc(C(=O)Nc2ccccc2-c2ccccc2)cc1` [TCMDC-143286] belongs more than 50 µM; to `COc1ccc2c(Cl)c(C(=O)N3CCC3)sc2c1Cl` [TCMDC-143262], more than 50 µM; to `O=C(NCC1CCCCC1)c1cc(=O)c2ccccc2o1` [TCMDC-123621], 50.0 µM. `O=C(NCc1ccncc1)c1ccccc1N1CCCN(C(=O)Cc2ccc(F)c(F)c2)CC1.O=C(O)C(F)(F)F.O=C(O)C(F)(F)F` [TCMDC-143300]: the “Cmin_Tox” value is given as more than 50 µM. In the case of `O=C(NCCc1ccccc1Cl)c1cccn1-c1cccnc1` [TCMDC-143253], the “Cmin_Tox” value is given as more than 50 µM. With `O=C(NCCc1cccnc1)c1csc(-c2ccccc2)n1` [TCMDC-143203], the “Cmin_Tox” value is more than 50 µM.

On to `COc1ccc(S(=O)(=O)NC(C)C)cc1Nc1ncc(-c2cccc(F)c2)cn1` [TCMDC-143248], for which the “Cmin_Tox” value was more than 50 µM. As to `CS(=O)(=O)NC1CCC(Oc2cc3cnccc3cc2-c2ccsc2)CC1.O=C(O)C(F)(F)F` (stereo not drawn) [TCMDC-143302], the “Cmin_Tox” value is given as more than 50 µM.

As to `CCN(C)Cc1ccc(N2CCC(NS(=O)(=O)c3ccc4c(c3)CCO4)CC2)nc1` [TCMDC-143244], the “Cmin_Tox” value was more than 50 µM. As for `Cc1cccnc1CN1CCN(CCCOc2ccc(-c3ccc(C(N)=O)cc3)cc2)CC1` [TCMDC-143291], the figure is more than 50 µM. `CC(=O)Nc1nc(-c2cc(C)ccc2C)c(C)s1` [TCMDC-143207]: the “Cmin_Tox” value was more than 50 µM.
